The nature of series [1]: Preliminary determination of pharmacokinetic properties in cynomolgus monkeys. The series is classed as in vivo. The conditions noted are these: cynomolgus monkey; male cynomolgus monkeys; subcutaneous (SC) 0.1 mg/kg; plasma, LC-MS. As to the method: The test animals were cynomolgus monkeys, two male cynomolgus monkeys in each compound group, and the drug was subcutaneously administered at 0.1 mg/kg. The blood was collected intravenously before (0 h) the administration, and 1 h, 2 h, 3 h, 4 h, 8 h, 12 h, 18 h, 24 h, 48 h, 96 h, 144 h, and 168 h after the administration of the compounds, and then centrifuged to isolate plasma samples.

For another series, the target named is T1, GLP-2R (Homo sapiens, UniProt O95838).
T1 construct: expressed in transfected cells; host or cells: CHO-K1
T1 sequence (O95838 1-553): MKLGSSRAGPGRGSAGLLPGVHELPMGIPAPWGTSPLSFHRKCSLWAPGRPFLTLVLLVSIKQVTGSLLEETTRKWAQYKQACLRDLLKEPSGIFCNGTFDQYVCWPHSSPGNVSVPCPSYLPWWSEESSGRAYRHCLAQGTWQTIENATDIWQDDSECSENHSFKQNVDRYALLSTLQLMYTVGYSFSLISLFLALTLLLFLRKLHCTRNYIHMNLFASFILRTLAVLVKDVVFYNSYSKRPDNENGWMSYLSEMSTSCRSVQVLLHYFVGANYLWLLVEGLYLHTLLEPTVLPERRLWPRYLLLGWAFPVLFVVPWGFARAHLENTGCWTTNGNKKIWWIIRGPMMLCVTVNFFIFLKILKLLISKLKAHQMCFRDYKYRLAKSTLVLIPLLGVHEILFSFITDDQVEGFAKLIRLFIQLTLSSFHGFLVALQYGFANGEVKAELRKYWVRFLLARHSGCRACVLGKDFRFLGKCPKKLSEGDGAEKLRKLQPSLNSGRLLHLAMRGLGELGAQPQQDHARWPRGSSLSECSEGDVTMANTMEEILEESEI
Kind of series: Determination of GLP-2 activity: cAMP chemiluminescence (RLU) in CHO-K1 cell line stably expressing GLP-2R. As to conditions: read-out: GLP-2 activity [EC50 (nmol)]. Format: cell-based. As to the method: (§1) GLP-2R, under the stimulation of its specific agonist, can activate the intracellular adenylate cyclase pathway, and increase the level of cAMP, finally leading to the generation and release of insulin. The stimulation of the cell lines stably transfected with […] by the agonist to be tested can lead to rapid increase in the intracellular cAMP level, and the relative light units (RLUs) after stimulating the cells at each dose are determined by chemiluminescence method to calculate the EC50 of the agonist. This method for determining activity is commonly used for GLP-2 receptor agonist activity analysis at home and abroad.
CHO-K1 cell line stably expressing GLP-2R was stimulated with the agonist at different concentrations. The EC50 value of the agonist was calculated by determining the relative light units after stimulating the cells at each dose.

The next series addresses T2, GLP-1R (Homo sapiens, UniProt P43220).
T2 construct: expressed in transfected cells; host or cells: CHO-K1
The series is described as follows: Determination of GLP-1 activity: cAMP chemiluminescence (RLU) in CHO-K1 cell line stably expressing GLP-1R. Format: cell-based. As to conditions: read-out: GLP-1 activity [EC50 (pmol)]. As to the method: as §1, with “GLP-1R,” for “GLP-2R,”, “GLP-1” for “GLP-2”
CHO-K1 cell line stably expressing GLP-1R was stimulated with the agonist at different concentrations. The EC50 value of the agonist was calculated by determining the relative light units after stimulating the cells at each dose.

Starred links: 1 amine or outer side, 2 acyl side, 3 side chain; linkers in the order of their positions; H or OH if unused. Non-standard residues stand in square brackets, D forms with d. Residues, ends and D or L forms follow the SMILES beside them. Groups on a side chain read outwards from the residue. *: point of attachment. C18 diacid = O=C(O)CCCCCCCCCCCCCCCCC(=O)*; γGlu = O=C(O)[C@H](CCC(=O)[*:2])N[*:1]; AEEEA = NCCOCCOCCOCC(=O)O; AEEA = NCCOCCOCC(=O)O; Aib = CC(C)(N)C(=O)O

We go through two compounds from patent US20250154226A1, “LONG-ACTING GLP-1/GLP-2 DUAL AGONIST COMPOUND” (CHENGDU AODA BIOTECHNOLOGY CO., LTD, priority 2022, published 2025).

T2 sequence (P43220 24-463, species assumed): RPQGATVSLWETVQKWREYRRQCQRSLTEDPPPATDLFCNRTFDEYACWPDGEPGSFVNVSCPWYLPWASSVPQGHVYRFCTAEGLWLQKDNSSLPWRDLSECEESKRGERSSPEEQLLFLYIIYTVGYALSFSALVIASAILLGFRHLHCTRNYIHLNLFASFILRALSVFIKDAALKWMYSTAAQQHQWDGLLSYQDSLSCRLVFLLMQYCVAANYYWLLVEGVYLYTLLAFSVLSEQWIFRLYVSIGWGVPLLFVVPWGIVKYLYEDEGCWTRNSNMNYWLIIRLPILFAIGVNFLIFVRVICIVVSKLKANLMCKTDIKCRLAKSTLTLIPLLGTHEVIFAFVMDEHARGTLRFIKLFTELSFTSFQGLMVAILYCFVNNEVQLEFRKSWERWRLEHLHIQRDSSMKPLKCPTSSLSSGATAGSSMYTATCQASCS

As a reminder, the half-life is how long it takes for the measured level to halve. Low readings indicate rapid decline, high ones slow decline. In series [1], `CC[C@H](C)[C@H](NC(=O)[C@H](Cc1ccccc1)NC(=O)[C@H](CC(=O)O)NC(=O)[C@H](CCCNC(=N)N)NC(=O)[C@H](C)NC(=O)[C@H](C)NC(=O)[C@H](CCC(N)=O)NC(=O)[C@H](CCCCNC(=O)COCCOCCOCCNC(=O)CC[C@H](NC(=O)CCCCCCCCCCCCCCCCC(=O)O)C(=O)O)NC(=O)[C@H](CC(=O)O)NC(=O)[C@H](CC(C)C)NC(=O)[C@@H](NC(=O)[C@@H](NC(=O)[C@H](C)NC(=O)[C@H](CC(C)C)NC(=O)[C@H](CCC(=O)O)NC(=O)[C@H](CO)NC(=O)[C@@H](NC(=O)[C@H](Cc1ccccc1)NC(=O)[C@H](CO)NC(=O)CNC(=O)[C@H](CCC(=O)O)NC(=O)C(C)(C)NC(=O)[C@@H](N)Cc1c[nH]cn1)[C@@H](C)O)[C@@H](C)O)[C@@H](C)CC)C(=O)N[C@@H](C)C(=O)N[C@@H](Cc1c[nH]c2ccccc12)C(=O)N[C@@H](CC(C)C)C(=O)N[C@H](C(=O)N[C@@H](CCC(N)=O)C(=O)N[C@@H](Cc1c[nH]cn1)C(=O)N[C@@H](CCCCN)C(=O)N[C@H](C(=O)N[C@H](C(=O)N[C@@H](CC(=O)O)C(N)=O)[C@@H](C)O)[C@@H](C)CC)[C@@H](C)CC` [Compound 4, His-Aib-Glu-Gly-Ser-Phe-Thr-Ser-Glu-Leu-Ala-Thr-Ile-Leu-Asp-Lys(PEG3CH2CO-γGlu-octadecanedioic acid)-Gln-Ala-Ala-Arg-Asp-Phe-Ile-Ala-Trp-Leu-Ile-Gln-His-Lys-Ile-Thr-Asp-NH2] (H-H[Aib]EGSFTSELATILDK([AEEEA-γGlu-C18 diacid])QAARDFIAWLIQHKITD-NH2; N-terminus assumed) had a half-life of 59.2 h.
Broadly, the EC50 is the concentration giving half of the maximal effect. Regarding `CC[C@H](C)[C@H](NC(=O)[C@H](Cc1ccccc1)NC(=O)[C@H](CC(=O)O)NC(=O)[C@H](CCCNC(=N)N)NC(=O)[C@H](C)NC(=O)[C@H](C)NC(=O)[C@H](CCC(N)=O)NC(=O)[C@H](CCCCNC(=O)COCCOCCNC(=O)CC[C@H](NC(=O)CCCCCCCCCCCCCCCCC(=O)O)C(=O)O)NC(=O)[C@H](CC(=O)O)NC(=O)[C@H](CC(C)C)NC(=O)[C@@H](NC(=O)[C@@H](NC(=O)[C@H](C)NC(=O)[C@H](CC(C)C)NC(=O)[C@H](CCC(=O)O)NC(=O)[C@H](CO)NC(=O)[C@@H](NC(=O)[C@H](Cc1ccccc1)NC(=O)[C@H](CO)NC(=O)CNC(=O)[C@H](CCC(=O)O)NC(=O)C(C)(C)NC(=O)[C@@H](N)Cc1c[nH]cn1)[C@@H](C)O)[C@@H](C)O)[C@@H](C)CC)C(=O)N[C@@H](C)C(=O)N[C@@H](Cc1c[nH]c2ccccc12)C(=O)N[C@@H](CC(C)C)C(=O)N[C@H](C(=O)N[C@@H](CCC(N)=O)C(=O)N[C@@H](Cc1c[nH]cn1)C(=O)N[C@@H](CCCCN)C(=O)N[C@H](C(=O)N[C@H](C(=O)N[C@@H](CC(=O)O)C(N)=O)[C@@H](C)O)[C@@H](C)CC)[C@@H](C)CC` [Compound 3, His-Aib-Glu-Gly-Ser-Phe-Thr-Ser-Glu-Leu-Ala-Thr-Ile-Leu-Asp-Lys(AEEA-γGlu-octadecanedioic acid)-Gln-Ala-Ala-Arg-Asp-Phe-Ile-Ala-Trp-Leu-Ile-Gln-His-Lys-Ile-Thr-Asp-NH2] (H-H[Aib]EGSFTSELATILDK([AEEA-γGlu-C18 diacid])QAARDFIAWLIQHKITD-NH2), the EC50 on GLP-2R was 4.7 nM; at GLP-1R it was 0.0601 nM.
